This assay has as its system male Wister rats. The assay is described as follows: Social interaction test of anxiety. The format is in vivo. The note with it: rat, 20 mg/kg intraperitoneal, 1 hour before test, 5 minutes observation, significance at p<0.01. How it is done:
The procedure for this assay is summarized below.
All experiments were performed on male Wister rats (Harlan laboratories, 275-300 gm). The rats were individually housed in a temperatu,re controlled room (72° F.) on a 12 hour day/night cycle. The rats were provided food and water ad libitum.
Approximately 40 mg of the test compound was weighed into a 20 mL glass vial. To this solid were added 80 μL of lactic acid (85%). The mixture was sonicated for 2 minutes and then 4 mL of distilled water was added in 1 mL increments. Sonication of this mixture was continued until all of the solid had dissolved. Following sonication, the pH of the mixture was raised by the addition of dilute aqueous sodium hydroxide until the mixture reached a pH of about 5.5.
Each rat was weighed and the test compound administered by intraperitoneal injection at 20 mg/kg of body weight. […]
Experimental anxiety was measured by a social interaction test. […] A video camera was fixed above the social interaction box and all behavioral tests were recorded. […] The amount of time that the rat which received test compound spent interacting (i.e. grooming, sniffing, crawling upon) with the other rat was recorded. […]
Social interaction data was analyzed as total interaction time in seconds and the raw scores were compared between baseline and treatment. […]

Consider `O[C@H](COc1ccc2ccccc2c1)CN1CCC(O)(c2cnc3ccccc3c2)CC1` [Example 37, 1-((2S)-hydroxy-3-(naphth-2-yloxy)prop-1-yl)-4-hydroxy-4-(quinolin-3-yl)piperidine], for which the “social interaction time as compared to baseline” value is “significantly increase social interaction time as compared to baseline”.

Values taken from patent US6242450A, “5-HT1F antagonists” (Eli Lilly and Company, priority 1999, dated 2001).
